Values of other authors, collected in patent US20250367122A1, “PHARMACEUTICAL COMPOSITION CONTAINING 1-{2-[(3S,4R)-1-{[(3R,4R)-1-CYCLOPENTYL-3-FLUORO-4-(4-METHOXYPHENYL)PYRROLIDIN-3-YL]CARBONYL}-4-(METHOXYMETHYL)PYRROLIDIN-3-YL]-5-(TRIFLUOROMETHYL)PHENYL}PIPERIDINE-4-CARBOXYLIC ACID OR PHARMACEUTICALLY ACCEPTABLE SALT OR CO-CRYSTAL THEREOF” (MITSUBISHI TANABE PHARMA CORPORATION, priority 2022, published 2025).

Test system: melanocortin receptor (MCR)
Details: as described in Patent Document 1

For `COC[C@H]1CN(C(=O)[C@]2(F)CN(C3CCCC3)C[C@H]2c2ccc(OC)cc2)C[C@@H]1c1ccc(C(F)(F)F)cc1N1CCC(C(=O)O)CC1` [Compound A, 1-{2-[(3S,4R)-1-{[(3R,4R)-1-cyclopentyl-3-fluoro-4-(4-methoxyphenyl)pyrrolidin-3-yl]carbonyl}-4-(methoxymethyl)pyrrolidin-3-yl]-5-(trifluoromethyl)phenyl}piperidine-4-carboxylic acid], the MCR activation effect is listed as “excellent”.
